Data on 1 molecule can be found in publication PMC3539793 (Neuroscience letters, 2012).

For one series, the system named is μ-opioid receptor. To be noted: cited from earlier work.
The subject of another series is δ-opioid receptor. As to conditions: cited from earlier work.
Series [1] relates to apomorphine-induced overshoot in movement. As to conditions: reserpine-treated akinesia rats; cited from earlier work.
For series [2] the following is noted: rhesus monkeys; i.m. injection; cited from earlier work.
The test system of the next series is allodynia. As to conditions: rhesus monkeys; i.m.; cited from earlier work.
A further series relates to thermal nociception. As to conditions: rhesus monkeys; i.m.; cited from earlier work.
The format of series [3] is in vivo, rat.

Non-standard residues stand in square brackets, D forms with d. Residues, ends and D or L forms follow the SMILES beside them. *: point of attachment. X1 = OC[C@H]1O[C@@H](O[C@H]2[C@H](O)[C@@H](O)[C@H](*)O[C@@H]2CO)[C@H](O)[C@@H](O)[C@H]1O

Regarding `CC(C)C[C@H](NC(=O)[C@H](Cc1ccccc1)NC(=O)CNC(=O)[C@H](NC(=O)[C@@H](N)Cc1ccc(O)cc1)[C@H](C)O)C(=O)N[C@@H](CO[C@@H]1O[C@H](CO)[C@@H](O[C@@H]2O[C@H](CO)[C@H](O)[C@H](O)[C@H]2O)[C@H](O)[C@H]1O)C(N)=O` [MMP-2200, Tyr-D-Thr-Gly-Phe-Leu-Ser(β-O-Glc)-CONH2] (H-Y[dT]GFLS(X1)-NH2; N-terminus assumed), in the series on μ-opioid receptor, the “affinity for μ-opioid receptor” value was “nanomolar”. Also, the “affinity for δ-opioid receptor” value with δ-opioid receptor is “nanomolar”. Besides, in series [1], the “apomorphine-induced overshoot in movement” value was “reversed”. For the same molecule, in series [2], the CNS distribution entry is reported as “very limited”. Besides, in the series with allodynia, the anti-allodynic effects entry is recorded as “comparable to morphine”. Further, the “effect in tail flick model of thermal nociception” value with thermal nociception is recorded as “not very effective”. The “MMP-2200 concentration in DLS reached within 10 minutes” value in series [3] (rat, systemic administration (i.p.), highlights) is “nM range”. For the same molecule, in series [3] (rats, MMP-2200 10 mg/kg i.p., 80 min, repeated measures ANOVA p = 0.8, n = 5), the “effect of MMP-2200 injection on endogenous leu-ENK level in DLS” value is listed as “unchanged”.
